Results published in publication PMC9501172, “Gallic Acid Alkyl Esters: Trypanocidal and Leishmanicidal Activity, and Target Identification via Modeling Studies” (Molecules, 2022).
In brackets after ≈: the same amount, converted by molar mass. Read-outs that look alike come from different tables or passages of the source.

Tests used:
[1] = test system: human myeloid HL-60 cells; experiment: General cytotoxicity, resazurin viability assay; assay type: cell-based; settings: for GI50 / MIC: Homo sapiens; for GI50: HL-60, 72 h, resazurin, 24 h + 48 h; for MIC: concentration at which all cells were killed, determined microscopically; for cytotoxicity against the human cells: HL-60, in words
Procedure: (§1) Trypanocidal, leishmanicidal, and cytotoxic activities of gallic acid alkyl esters were determined with bloodstream forms of T. brucei (clone 427-221a), promastigotes of L. major (strain MHOM/IL/81/Friedlin [51]), and human myeloid HL-60 cell, respectively. The viability of cells was evaluated with the vital dye resazurin as previously described with some modifications. Cells were seeded in 96-well plates in a final volume of 200 μL Baltz medium (T. brucei bloodstream forms and HL-60 cells) or Schneider’s insect medium (L. major promastigotes) supplemented with 16.7% and 10% fetal bovine serum, respectively. Test compounds were assayed at tenfold dilutions starting from 100 μM down up to 100 nM in the presence of 0.9% DMSO. Wells containing medium with 0.9% DMSO alone served as controls. The initial cell densities were 1 × 10^4/mL for T. brucei bloodstream forms, 2.5 × 10^5/mL for L. major promastigotes, and 5 × 10^4/mL for HL-60 cells. The cultures were incubated at 37 °C (T. brucei bloodstream forms and HL-60 cells) and 27 °C (L. major promastigotes) in a humidified atmosphere containing 5% CO2. After 24 h of incubation, 20 µL of a 0.5 mM resazurin solution prepared in sterile PBS was added to each well, and the cultures were incubated for another 48 h. Then, the absorbance of each well was read on a BioTek ELx808 microplate reader using a test wavelength of 570 nm and a reference wavelength of 630 nm. The 50% growth inhibition (GI50) value, i.e., the concentration of a compound necessary to reduce the growth rate of cells by 50% compared to the control, was determined by linear interpolation. The minimum inhibitory concentration (MIC) value, i.e., the concentration of a compound at which all cells were killed, was determined microscopically.

[2] = test system: bloodstream forms of T. brucei; experiment: Trypanocidal activity, resazurin viability assay; assay type: cell-based, Trypanosoma brucei; settings: for GI50 / MIC: Trypanosoma brucei; for MIC: concentration at which all cells were killed, determined microscopically
Procedure: as §1

HL-60 / T. brucei = experiment: Selectivity: ratio of cytotoxic to trypanocidal activity; assay type: cell-based, Trypanosoma brucei; settings: for GI50 Ratio: GI50(HL-60)/GI50(T. brucei); for MIC Ratio: MIC(HL-60)/MIC(T. brucei)
Procedure: as §1

T. brucei = settings: cited from earlier work
[3] = test system: promastigotes of L. major; experiment: Leishmanicidal activity, resazurin viability assay; assay type: cell-based, Leishmania major; settings: for inhibition at 100 µM: read-out: Growth Inhibition (% at 100 μM); for leishmanicidal activity: in words; for GI50: values in brackets
Procedure: as §1

[4] = test system: T. brucei bloodstream forms; experiment: Motility assay with glucose or glycerol as substrate; assay type: cell-based, Trypanosoma brucei; settings: 55 mM glucose, compound 200 μM, PBS
Procedure: A culture of bloodstream forms of T. brucei was divided into two equal portions (9 mL) and collected by centrifugation. The cell pellets were resuspended in 1 mL PBS containing 55 mM glucose or 55 mM glycerol. After subsequent centrifugation, the cell pellets were resuspended again in PBS/55 mM glucose and PBS/55 mM glycerol, respectively, and the cell density was adjusted to 2 × 10^6/mL. Then, 100 μL of trypanosomes were mixed with 100 μL PBS/55 mM glucose or 100 μL PBS/55 mM glycerol containing gallic acid alkyl esters at a concentration of 400 μM, giving a final concentration of the esters in the assay of 200 μM. The final concentration of DMSO in each test was 0.9%. The motility of the trypanosomes was examined under the microscope.

[5] = test system: murine B-lymphoma WEHI-231 cells; design: method as in PMID 9466819; settings: cited from earlier work
Vero cells [6] = test system: Vero cells; design: method as in PMID 18797755; settings: cited from earlier work
Vero cells [7] = experiment: Cytotoxicity against Vero cells quoted from the literature; assay type: cell-based; settings: for times Vero cells are less sensitive compared with HL-60 cells: GI50(Vero) vs GI50(HL-60); for selectivity: using the Vero cell cytotoxicity as the basis, relative to trypanocidal activity
[8] = 72 h, bloodstream forms clone 427-221a, resazurin, 24 h + 48 h, read-out: T. brucei GI50
[9] = bloodstream forms clone 427-221a
[10] = trypanocidal activity of related phenolic esters
[11] = T. brucei bloodstream forms, GI50 expressed in μg/mL, read-out: GI50

Row | SMILES | GI50 [1] | MIC [1] | GI50 [2, 8] | MIC [2, 9] | GI50 Ratio (HL-60 / T. brucei) | MIC Ratio (HL-60 / T. brucei) | MIC ([3]; Leishmania major) | inhibition at 100 µM ([3]; Leishmania major) | Motility after 5 min [4] | other results
1 | Cc1ccc(C(=O)Nc2ccc(S(=O)(=O)O)c3cc(S(=O)(=O)O)cc(S(=O)(=O)O)c23)cc1NC(=O)c1cccc(NC(=O)Nc2cccc(C(=O)Nc3cc(C(=O)Nc4ccc(S(=O)(=O)O)c5cc(S(=O)(=O)O)cc(S(=O)(=O)O)c45)ccc3C)c2)c1 [Suramin, reference compound] | > 100 µM | > 100 µM | 0.04 µM | 1 µM (≈ 1.3 µg/mL) | >2500 | >100 | – | – | – | times higher GI50 ratio than gallic acid alkyl esters 4, 5, and 6 (HL-60 / T. brucei): 100 times; times higher MIC ratio than gallic acid alkyl esters 4, 5, and 6 (HL-60 / T. brucei): 10 times
2 | CC(C)CCOC(=O)C=Cc1ccc(O)c(O)c1 [caffeic acid isopentyl ester, 3,4-dihydroxycinnamic (caffeic) acid isopentyl ester] | – | – | – | – | – | – | – | – | – | GI50 (T. brucei; [10]): 1.24 µM
3 | CC(C)OC(=O)c1cc(O)c(O)c(O)c1 [Compound 3, Gallic acid isopropyl ester] | 87.9 ± 8.2 µM | > 100 µM | 8.4 ± 2.2 µM | 100 µM (≈ 21.2 µg/mL) | 10.5 | >1 | > 100 µM | 34% | + + + | –
4 | CCOC(=O)c1cc(O)c(O)c(O)c1 [Compound 2, Gallic acid ethyl ester] | > 100 µM | > 100 µM | 27.9 ± 2.4 µM | 100 µM (≈ 19.8 µg/mL) | >3.6 | >1 | > 100 µM | 0% | + + + | cytotoxicity against the human cells [1]: no cytotoxicity; leishmanicidal activity [3]: no leishmanicidal activity
5 | C[C@@H]1[C@H](O)[C@@H](C)/C=C/C=C/C=C/C=C/C=C/C=C/C=C/[C@H](O[C@@H]2O[C@H](C)[C@@H](O)[C@H](N)[C@@H]2O)C[C@@H]2O[C@](O)(C[C@@H](O)C[C@@H](O)[C@H](O)CC[C@@H](O)C[C@@H](O)CC(=O)O[C@H]1C)C[C@H](O)[C@H]2C(=O)O [Amphotericin B, reference compound] | – | – | – | – | – | – | 0.1 µM (≈ 0.0924 µg/mL) | – | – | inhibition at 10 µM ([3]; Leishmania major, at 10 μM, read-out: Growth Inhibition (%)): 100%; GI50 ([3]; Leishmania major): 0.04 µM
6 | CC(C)CCOC(=O)c1cc(O)c(O)c(O)c1 [Compound 6, Gallic acid isopentyl ester] | 90.4 ± 21.6 µM | > 100 µM | ~3 µM | 10 µM (≈ 2.4 µg/mL) | – | >10 | 100 µM (≈ 24 µg/mL) | 45% | + + + | times less active compared with suramin ([2]; T. brucei bloodstream forms): 10–100 times; GI50 [2, 11]: 0.63 to 0.78 µg/mL
7 | O=C(O)c1cc(O)c(O)c(O)c1 [gallic acid, 3,4,5-trihydroxybenzoic acid] | – | – | – | – | – | – | – | – | – | GI50 (T. brucei; trypanocidal activity of the reactant): 14.2 µM
8 | COCCOC(=O)c1cc(O)c(O)c(O)c1 [Compound 8, Gallic acid 2-methoxyethyl ester] | 99.2 ± 9.4 µM | > 100 µM | 5.6 ± 1.3 µM | 100 µM (≈ 22.8 µg/mL) | 17.7 | >1 | 100 µM (≈ 22.8 µg/mL) | 47% | + + + | melting point: 152 to 153 °C
9 | O=C(/C=C/c1ccc(O)c(O)c1)OCCc1ccccc1 [caffeic acid phenethyl ester] | – | – | – | – | – | – | – | – | – | GI50 (T. brucei; trypanocidal activity): 0.046 µM
10 | CCCCCCCCOC(=O)c1cc(O)c(O)c(O)c1 [octyl gallate] | – | – | – | – | – | – | – | – | – | GI50 [5]: 1.5 µM
11 | CCCCCOC(=O)c1cc(O)c(O)c(O)c1 [Compound 7, Gallic acid pentyl ester] | > 100 µM | > 100 µM | 32.8 ± 0.9 µM | 100 µM (≈ 24 µg/mL) | >3.0 | >1 | > 100 µM | 0% | + + + | cytotoxicity against the human cells [1]: no cytotoxicity; leishmanicidal activity [3]: no leishmanicidal activity; melting point: 94 to 96 °C
12 | CCCCCCCCCCCCOC(=O)c1cc(O)c(O)c(O)c1 [dodecyl gallate] | – | – | – | – | – | – | – | – | – | GI50 [5]: 1 µM
13 | CCCCOC(=O)c1cc(O)c(O)c(O)c1 [Compound 5, Gallic acid butyl ester] | 74.8 ± 4.5 µM | > 100 µM | ~3 µM | 10 µM (≈ 2.26 µg/mL) | – | >10 | 100 µM (≈ 22.6 µg/mL) | 58% | + + + | GI50 (Vero cells [6]): 361 µM; times Vero cells are less sensitive compared with HL-60 cells (Vero cells [7]): 4.8 times; selectivity (Vero cells [7]): > 100; GI50 ([3]; Leishmania major): 62.4 µM; times less active compared with suramin ([2]; T. brucei bloodstream forms): 10–100 times; GI50 [2, 11]: 0.63 to 0.78 µg/mL
14 | CCCOC(=O)c1cc(O)c(O)c(O)c1 [Compound 4, Gallic acid propyl ester] | 82 ± 8.2 µM | > 100 µM | ~3 µM | 10 µM (≈ 2.12 µg/mL) | – | >10 | 100 µM (≈ 21.2 µg/mL) | 61% | + + + | GI50 (Vero cells [6]): 713 µM; times Vero cells are less sensitive compared with HL-60 cells (Vero cells [7]): 8.7 times; selectivity (Vero cells [7]): > 100; GI50 ([3]; Leishmania major): 50.4 µM; times less active compared with suramin ([2]; T. brucei bloodstream forms): 10–100 times; GI50 [2, 11]: 0.63 to 0.78 µg/mL
15 | COC(=O)c1cc(O)c(O)c(O)c1 [Compound 1, Gallic acid methyl ester] | > 100 µM | > 100 µM | 24.5 ± 4.5 µM | 100 µM (≈ 18.4 µg/mL) | >4.1 | >1 | > 100 µM | 2% | + + + | cytotoxicity against the human cells [1]: no cytotoxicity
16 | CCOC(=O)C=Cc1ccc(O)c(OC)c1 [ferulic acid ethyl ester, 3-methoxy-4-hydroxycinnamic (ferulic) acid ethyl ester] | – | – | – | – | – | – | – | – | – | GI50 (T. brucei; [10]): 110 µM
